Experimental data from patent US9573930B2 (Quanticel Pharmaceuticals, Inc., priority 2014, dated 2017).

These molecules were tested against full-length human LSD1 (Homo sapiens (Human), UniProt O60341) (assay: In vitro enzyme inhibition assay LSD-1 (TR-FRET)). Conditions: H3K4me1-biotin peptide.
Assay type: biochemical
Method: This assay determines the ability of a test compound to inhibit LSD1 demethylase activity.
The enzymatic assay of LSD1 activity is based on Time Resolved-Fluorescence Resonance Energy Transfer (TR-FRET) detection.
The ability of the compounds disclosed herein to inhibit LSD1 activity was quantified and the respective IC50 value was determined.

Row | IC50 | Compound
1 | < 100 nM | Cn1c(N2CCC(N)CC2)nc(-c2ccc(C#N)cc2)c(-c2ccc(OCCO)cc2)c1=O [Example 97, 4-[2-(4-aminopiperidin-1-yl)-5-[4-(2-hydroxyethoxy)phenyl]-1-methyl-6-oxopyrimidin-4-yl]benzonitrile]
2 | < 100 nM | CCc1ccc(-c2c(-c3ccc(C#N)cc3)nc(N3CCC(N)CC3)n(C)c2=O)cn1 [Example 10, 4-[2-(4-amino-piperidin-1-yl)-5-(6-ethyl-pyridin-3-yl)-1-methyl-6-oxo-1,6-dihydro-pyrimidin-4-yl]-benzonitrile]

Continued, molecule first:

Row | Compound | IC50
3 | COc1ccc(-c2c(-c3ccc(C#N)c(F)c3)nc(N3CC[C@H](N)[C@H](F)C3)n(C)c2=O)cc1 [Example 79, 4-[2-((4S,3R)-4-amino-3-fluoro-piperidin-1-yl)-5-(4-methoxy-phenyl)-1-methyl-6-oxo-1,6-dihydro-pyrimidin-4-yl]-2-fluoro-benzonitrile] | < 100 nM
4 | Cn1c(N2CCC(N)CC2)nc(-c2ccc(C#N)c(F)c2)c(-c2ccc(CCO)cc2)c1=O [Example 99, 4-[2-(4-aminopiperidin-1-yl)-5-[4-(2-hydroxyethyl)phenyl]-1-methyl-6-oxopyrimidin-4-yl]-2-fluorobenzonitrile] | < 100 nM
5 | COc1ccc(-c2c(-c3ccccc3C#N)nc(N3CCC(N)CC3)n(C)c2=O)cc1F [Example 119, 2-[2-(4-aminopiperidin-1-yl)-5-(3-fluoro-4-methoxyphenyl)-1-methyl-6-oxopyrimidin-4-yl]benzonitrile] | > 10000 nM
6 | N#Cc1ccc(-c2cc(=O)n(CCCO)c(N3CCC(N)CC3)n2)cc1F [Example 17, 4-[2-(4-amino-piperidin-1-yl)-1-(3-hydroxy-propyl)-6-oxo-1,6-dihydro-pyrimidin-4-yl]-2-fluoro-benzonitrile] | 100 to 1000 nM
